Like-named read-outs stand apart in the source and are kept apart here. Marks after values point to notes of the source that are not given here. Starred links: 1 amine or outer side, 2 acyl side, 3 side chain; linkers in the order of their positions; H or OH if unused. Positions of bridges follow the written chain, without caps; N, C: chain ends. Non-standard residues stand in square brackets, D forms with d. Residues, ends and D or L forms follow the SMILES beside them. Chains are numbered I, II in the order given. Actinocin(9to1) = Cc1c2oc3c(C)ccc(C(=O)[*:1])c3nc-2c(C(=O)[*:2])c(N)c1=O; NMeV = CN[C@H](C(=O)O)C(C)C; Sar = CNCC(=O)O
What was measured:
HCV = conditions: ribavirin alone; cited from earlier work
[1] = system: HepG2 human hepatoma cell line; assay: Cytotoxicity (cell proliferation) assay, HepG2; conditions: rapid cell division; listed as RBV
HepG2 cells [2] = assay: Incorporation of drug into cellular RNA and DNA
[3] = system: BVDV (strain I-N-dIns), noncytopathic; type: cell-based, bovine viral diarrhea virus; conditions: titrated from 0 to 2,000 IU per ml
BVDV [4] = type: cell-based, bovine viral diarrhea virus
S405T mutant BVDV = type: cell-based, bovine viral diarrhea virus; conditions: more sensitive
[5] = system: BVDV New York-1 (NY-1) strain; assay: MDBK cells persistently infected with BVDV strain New York-1, virus titer; type: cell-based, bovine viral diarrhea virus; conditions: 200 IU/ml alone
[6] = Exposure of chimpanzees to mCyd, serum HPLC; conditions: after val-mCyd; lower limit of quantification 0.4 μM (100 ng/mL)
BVDV [7] = assay: Exploratory cell culture studies of mUrd, antiviral efficacy against BVDV; type: cell-based, bovine viral diarrhea virus; conditions: less potent than mCyd
[8] = system: wide spectrum of other viruses; assay: Exploratory cell culture studies of mUrd, other viruses; type: cell-based
BVDV [9] = type: cell-based, bovine viral diarrhea virus; remark: listed apart in the source
YFV = type: cell-based, yellow fever virus; conditions: Tables 30b, 30k-30o
CVB-2 = assay: organism not typed; type: cell-based, Coxsackie B-2 virus; conditions: read-out: CVB-2
[10] = system: variety of cytotoxicity tests; assay: Exploratory cytotoxicity tests of mUrd (bone marrow, mitochondrial function, incorporation into nucleic acid); type: cell-based; conditions: high concentrations
Sb-1 = assay: organism not typed; type: cell-based, Sabin type 1 poliomyelitis virus; conditions: read-out: Sb-1
[11] = system: MT-4 human T-lymphocyte cells
REO-1 = assay: microbe, parasite or virus in culture; type: cell-based, double-stranded RNA Reovirus; conditions: read-out: REO
WNV = assay: microbe, parasite or virus in culture; type: cell-based, West Nile virus; conditions: read-out: WNV
DENV 2 = assay: microbe, parasite or virus in culture; type: cell-based, dengue virus; conditions: read-out: DENV 2
human DNA polymerase γ = molecular target: T1, human DNA polymerase γ (Homo sapiens, UniProt P54098); assay: biochemical
T1 sequence (P54098 1-1239): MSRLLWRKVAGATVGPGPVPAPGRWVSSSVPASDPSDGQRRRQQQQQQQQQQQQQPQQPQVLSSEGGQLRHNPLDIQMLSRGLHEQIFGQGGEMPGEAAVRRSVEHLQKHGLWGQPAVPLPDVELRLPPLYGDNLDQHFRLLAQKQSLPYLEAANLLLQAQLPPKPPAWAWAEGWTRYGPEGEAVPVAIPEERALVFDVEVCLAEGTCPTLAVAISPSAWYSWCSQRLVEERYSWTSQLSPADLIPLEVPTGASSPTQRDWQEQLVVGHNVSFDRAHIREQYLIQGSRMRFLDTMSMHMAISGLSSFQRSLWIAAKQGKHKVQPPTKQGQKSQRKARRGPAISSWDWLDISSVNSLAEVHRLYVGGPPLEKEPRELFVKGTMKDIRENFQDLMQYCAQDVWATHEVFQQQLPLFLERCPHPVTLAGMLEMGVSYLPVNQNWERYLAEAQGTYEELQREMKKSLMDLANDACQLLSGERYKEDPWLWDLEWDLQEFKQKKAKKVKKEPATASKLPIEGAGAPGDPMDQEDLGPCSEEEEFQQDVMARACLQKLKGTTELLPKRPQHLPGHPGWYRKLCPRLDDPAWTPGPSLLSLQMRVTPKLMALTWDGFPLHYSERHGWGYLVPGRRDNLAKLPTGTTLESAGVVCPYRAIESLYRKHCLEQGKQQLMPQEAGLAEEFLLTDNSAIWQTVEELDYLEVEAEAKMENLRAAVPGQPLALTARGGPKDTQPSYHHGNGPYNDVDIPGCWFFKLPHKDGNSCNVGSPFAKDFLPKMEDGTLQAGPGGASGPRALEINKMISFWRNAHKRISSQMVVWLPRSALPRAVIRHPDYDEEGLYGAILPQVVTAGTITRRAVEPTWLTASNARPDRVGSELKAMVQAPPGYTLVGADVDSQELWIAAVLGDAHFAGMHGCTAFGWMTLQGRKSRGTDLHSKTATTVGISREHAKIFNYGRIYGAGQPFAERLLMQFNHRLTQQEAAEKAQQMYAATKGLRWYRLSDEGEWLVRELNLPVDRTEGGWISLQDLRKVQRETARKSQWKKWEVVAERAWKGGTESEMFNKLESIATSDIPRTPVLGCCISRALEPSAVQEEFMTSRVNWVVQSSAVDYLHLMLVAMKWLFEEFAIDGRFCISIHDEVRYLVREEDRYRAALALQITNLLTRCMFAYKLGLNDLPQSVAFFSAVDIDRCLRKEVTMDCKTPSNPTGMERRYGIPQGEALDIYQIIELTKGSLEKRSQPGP

human DNA polymerase α = human DNA polymerase α (Homo sapiens, UniProt P09884); assay: Inhibition of human DNA polymerase α; type: biochemical
human DNA polymerase β = human DNA polymerase β (Homo sapiens, UniProt P06746); assay: Inhibition of human DNA polymerase β; type: biochemical
HepG2 cells [12] = conditions: 10 μM; cell type not stated; cited from earlier work

Chain of human DNA polymerase α (P09884 whole entry): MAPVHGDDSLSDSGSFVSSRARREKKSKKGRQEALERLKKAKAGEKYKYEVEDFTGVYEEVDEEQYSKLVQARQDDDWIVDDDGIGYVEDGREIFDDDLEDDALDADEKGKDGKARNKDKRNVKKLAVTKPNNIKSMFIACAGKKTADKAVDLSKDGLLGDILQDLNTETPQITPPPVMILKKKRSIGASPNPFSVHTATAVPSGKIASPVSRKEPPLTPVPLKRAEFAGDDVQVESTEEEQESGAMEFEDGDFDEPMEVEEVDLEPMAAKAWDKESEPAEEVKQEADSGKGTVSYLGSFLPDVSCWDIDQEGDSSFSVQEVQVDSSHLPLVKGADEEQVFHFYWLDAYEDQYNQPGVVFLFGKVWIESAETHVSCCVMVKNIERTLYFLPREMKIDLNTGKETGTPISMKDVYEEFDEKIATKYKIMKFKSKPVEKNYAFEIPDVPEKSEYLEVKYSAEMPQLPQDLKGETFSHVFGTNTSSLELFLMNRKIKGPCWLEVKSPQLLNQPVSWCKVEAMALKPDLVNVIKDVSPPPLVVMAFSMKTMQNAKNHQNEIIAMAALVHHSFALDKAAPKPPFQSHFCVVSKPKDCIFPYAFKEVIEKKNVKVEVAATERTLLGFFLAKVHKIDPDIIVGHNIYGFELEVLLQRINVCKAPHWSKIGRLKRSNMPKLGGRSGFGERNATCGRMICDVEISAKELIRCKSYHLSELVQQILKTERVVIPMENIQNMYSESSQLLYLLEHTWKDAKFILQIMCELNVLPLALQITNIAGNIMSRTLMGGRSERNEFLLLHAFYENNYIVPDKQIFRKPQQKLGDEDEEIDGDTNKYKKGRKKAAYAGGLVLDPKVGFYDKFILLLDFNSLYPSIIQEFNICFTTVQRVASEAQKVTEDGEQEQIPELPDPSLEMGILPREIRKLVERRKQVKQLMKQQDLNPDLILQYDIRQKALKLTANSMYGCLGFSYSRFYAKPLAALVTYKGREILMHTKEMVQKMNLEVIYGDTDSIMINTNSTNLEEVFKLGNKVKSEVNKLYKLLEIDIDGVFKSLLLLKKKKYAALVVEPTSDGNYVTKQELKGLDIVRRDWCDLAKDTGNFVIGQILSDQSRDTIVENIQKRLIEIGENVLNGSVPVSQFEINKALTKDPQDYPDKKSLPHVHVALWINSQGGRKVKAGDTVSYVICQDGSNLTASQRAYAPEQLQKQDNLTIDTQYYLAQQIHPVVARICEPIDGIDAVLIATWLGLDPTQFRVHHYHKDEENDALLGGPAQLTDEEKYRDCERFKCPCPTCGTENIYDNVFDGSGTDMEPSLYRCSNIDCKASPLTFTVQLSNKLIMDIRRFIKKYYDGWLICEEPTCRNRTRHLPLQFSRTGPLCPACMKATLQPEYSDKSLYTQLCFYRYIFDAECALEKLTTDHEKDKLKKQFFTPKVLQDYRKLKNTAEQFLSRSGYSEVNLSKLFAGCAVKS

Q: With `NC(=O)c1ncn([C@@H]2O[C@H](CO)[C@@H](O)[C@H]2O)n1` [ribavirin, 1-β-D-ribofuranosyl-1-1,2,4-triazole-3-carboxamide] as the compound, how does the “effect on serum levels of HCV-RNA” value (HCV) read?
A: does not lower serum levels of HCV-RNA

Q: What about the “patients with serum amino transferase levels reduced to normal” value (HCV) of the same compound?
A: 40%

Q: What about the CC50 [1] of the same compound?
A: 36 µM

Q: And the “Incorporated drug amount, DNA” value (HepG2 cells [2]; 10 μM [3H] drug, 30 hours)?
A: 0.0120^b pmole/μg DNA

Q: What about the “Incorporated drug amount, RNA” value (HepG2 cells [2]; 10 μM [3H] drug, 30 hours) of the same compound?
A: 0.0132^c pmole/μg RNA

Q: What about the “incorporation into both DNA and RNA, level relative to mCyd” value (HepG2 cells [2]; higher than mCyd) of the same compound?
A: 10 fold

Q: Which “reduction in viral titer” value [3] does the source give for interferon alpha 2b here?
A: 0.1 log

Q: And the EC50 (BVDV [4])?
A: 2.6 IU per ml

Q: What about the viral reduction (BVDV [4]; even at 1000 IU per ml) of the same compound?
A: ≤ 2 logs

Q: And the “sensitivity of the mutant relative to wild-type” value (S405T mutant BVDV)?
A: ~40 fold

Q: And the “reduction in virus titer” value [5]?
A: approximately 0.1 log10

Q: Which “mUrd in sera samples” value [6] does the source give for `C[C@@]1(O)[C@H](O)[C@@H](CO)O[C@H]1n1ccc(=O)[nH]c1=O` [Compound N, β-D-2′-C-methyl-uracil] here?
A: No mUrd was detected

Q: And the “potency against BVDV relative to mCyd” value (BVDV [7])?
A: about 10 fold

Q: And the “antiviral activity against a wide spectrum of other viruses” value [8]?
A: essentially no antiviral activity

Q: And the EC50 (BVDV [9])?
A: 18 µM

Q: And the EC50 (YFV)?
A: 100 µM

Q: What about the EC50 (CVB-2) of the same compound?
A: > 100 µM

Q: And the “result in cytotoxicity tests” value [10]?
A: negative

Q: And the EC50 (Sb-1)?
A: 55 µM

Q: What about the CC50 [11] of the same compound?
A: > 100 µM

Q: And the EC50 (REO-1)?
A: > 100 µM

Q: And the EC50 (WNV)?
A: 80 µM

Q: And the EC50 (DENV 2)?
A: ≥ 100 µM

Q: For `Nc1ccn([C@H]2CC[C@@H](COP(=O)(O)OP(=O)(O)OP(=O)(O)O)O2)c(=O)n1` [ddC-TP], which IC50 (human DNA polymerase γ) is on record?
A: 2.7 ± 1 µM

Q: What about the IC50 (human DNA polymerase α) of the same compound?
A: 78 ± 23.4 µM

Q: And the IC50 (human DNA polymerase β)?
A: 4.8 ± 1 µM

Q: For `O=c1[nH]c(=O)n([C@@H]2O[C@H](CO)[C@@H](O)[C@@H]2F)cc1I` [FIAU, 1,-2′-deoxy-2′-fluoro-1-β-D-arabinofuranosyl-5-iodo-uracil], which “increase in lactic acid production over control cells” value (HepG2 cells [12]) is on record?
A: 100%

Q: For `Cc1c2oc3c(C)ccc(C(=O)N[C@@H]4C(=O)N[C@H](C(C)C)C(=O)N5CCC[C@H]5C(=O)N(C)CC(=O)N(C)[C@@H](C(C)C)C(=O)O[C@@H]4C)c3nc-2c(C(=O)N[C@@H]2C(=O)N[C@H](C(C)C)C(=O)N3CCC[C@H]3C(=O)N(C)CC(=O)N(C)[C@@H](C(C)C)C(=O)O[C@@H]2C)c(N)c1=O` [Act. D, actinomycin D] (I: T[dV]P[Sar][NMeV] / II: T[dV]P[Sar][NMeV]; ester I:1-I:C, II:1-II:C; linker I:N-II:N via Actinocin(9to1)), which IC50 (human DNA polymerase γ) is on record?
A: 15.5 ± 4 µM

Q: What about the IC50 (human DNA polymerase α) of the same compound?
A: 5.8 ± 3.1 µM

Q: And the IC50 (human DNA polymerase β)?
A: 7.9 ± 3 µM

Q: For `C[C@@]1(O)[C@H](O)[C@@H](COP(=O)(O)OP(=O)(O)OP(=O)(O)O)O[C@H]1n1ccc(N)nc1=O` [mCyd-TP, 2′-C-methyl-cytidine-5′-triphosphate], which IC50 (human DNA polymerase γ) is on record?
A: ≥ 929 µM

Q: And the IC50 (human DNA polymerase β)?
A: ≥ 883 µM

Source: US7625875B2 (priority 2002, dated 2009)
